“And” between values parts separate entries of the source, which are not always exact repeats. Equal values may be shown once.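 Test compounds were applied to cells in 96-well plates for 48 hours at 5 doses. At the GI50, growth is halved. Definition used: TGI = concentration required for complete inhibition of growth.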
Assays:
Assay in all cases: growth of human tumour cells (NCI), 48 h
[1] = system: OVCAR-4 ovarian
[2] = system: M14 melanoma
[3] = system: SF-295 CNS
[4] = system: A498 renal
[5] = system: SK-MEL-5 melanoma
[6] = system: OVCAR-5 ovarian
[7] = system: HS 578T breast
[8] = system: OVCAR-8 ovarian
[9] = system: MOLT-4 leukemia
[10] = system: SK-OV-3 ovarian

Row | SMILES | GI50 [1] [µM] | TGI [1] [µM] | GI50 [2] [µM] | TGI [2] | GI50 [3] [µM] | TGI [3] | GI50 [4] [µM] | TGI [4] | GI50 [5] [µM] | TGI [5] | GI50 [6] [µM] | TGI [6] | GI50 [7] [µM] | TGI [7] [µM] | GI50 [8] | TGI [8] | GI50 [9] [µM] | TGI [9] [µM] | GI50 [10] | TGI [10]
1 | CCN(CC)C1CCC(Nc2c(C(C)=O)cnc3ccc(-c4ccc(O)c(Cl)c4)cc23)CC1 (centres undefined) | 0.77 | 13.6 | 0.468 | 15.4 µM | 4.46 | 24.9 µM | 2.19 | 6.84 µM | 0.782 | 4.55 µM | 2.4 | > 96.3 µM | 0.157 | 2.81 | 0.818 µM | 14 µM | 0.253 | 1.18 | 0.931 µM | > 44.5 µM
2 | CC(=O)OC1CC2C3CCC4C[C@@H](NC(=O)C=C(C)C)CC[C@]4(C)C3CC[C@]2(C)[C@H]1C(C)N(C)C (some centres undefined) | 2.82 | 17.5 | 1.6 | 3.39 µM | 2.11 | 4.75 µM | 1.71 | 4.51 µM | 1.37 | 2.71 µM | 3.46 | 10.4 µM | 2 | 5.25 | 4.87 µM | > 31.5 µM | 1.32 | 4.18 | 2.79 µM | 7.38 µM
3 | NC(N)=N/N=C/c1ccc(-c2ccc(-c3cc(Cl)cc(Cl)c3)s2)cc1 | 1.9 | 3.77 | 1.75 | 3.53 µM | 1.84 | 3.47 µM | 1.25 | 2.55 µM | 2.79 | 7.85 µM | 1.59 | 3.02 µM | 1.78 | 4.05 | 2.48 µM | 6.34 µM | 1.72 | 4.3 | 2 µM | 4.08 µM
4 | Cn1c(=O)c(Oc2ccc(F)cc2F)cc2cnc(NC3CCS(=O)(=O)CC3)nc21 | > 25 | > 25 | > 25 | > 25 µM | > 12.4 | > 25 µM | > 25 | > 25 µM | > 25 | > 25 µM | > 25 | > 25 µM | > 25 | > 25 | > 25 µM | > 25 µM | > 25 | > 25 | > 20 µM | > 25 µM
5 | CN1C/C=C/CCOc2cccc(c2)-c2ccnc(n2)Nc2cccc(c2)C1 | 0.108 | 1.31 | 0.0391 | 0.181 µM | 0.0321 | 0.434 µM | 0.0356 | 0.11 µM | 0.0318 | 0.222 µM | 0.0323 | 2.08 µM | 0.0367 | 0.438 | 0.0412 µM | 1.26 µM | 0.0396 | 0.959 | 0.174 µM | 3.82 µM
6 | CC(=O)N1N=C2/C(=C/c3ccc(Cl)cc3)CC(C)CC2C1c1ccc(Cl)cc1 (centres undefined) | 27.9 | > 100 | 17.7 | 35.3 µM | 28.8 | > 100 µM | 13 | 28.7 µM | 12.2 | 25 µM | 43.4 | > 100 µM | 20.6 | 72.1 | 24.9 µM | > 100 µM | 11.6 | 39.3 | 20.4 µM | 59.6 µM
7 | Cc1cc(C(C)(C)C)cc(CNC2CCCCC2)c1O | – | 51.5 | – | 29.4 µM | – | 31.7 µM | – | 30.3 µM | – | 30.9 µM | – | 31.9 µM | – | 48.7 | – | 31 µM | – | 92.4 | – | 41.9 µM
8 | Cn1cc(C2=C(c3cn(C)c4ccccc34)C(=O)NC2=O)c2ccccc21 | 5.01 | > 25 | 1.9 | > 25 µM | 0.903 | > 25 µM | 0.457 | > 25 µM | 0.873 | > 25 µM | > 25 | > 25 µM | 0.7 | > 19.9 | 2.96 µM | > 25 µM | 4.81 | > 25 | 1.51 µM | > 25 µM
9 | CCCCCCCCC(=O)OCC(CS[As](C)C)OC(=O)CCCCCCCC (centres undefined) | 9.89 | 38.4 | 0.831 | 12.7 µM | 3.66 | 19.4 µM | 2.38 | 10.7 µM | 0.163 | 0.388 µM | 3.22 | 10 µM | 1.39 | – | 1.75 µM | 5.3 µM | 0.326 | 2.21 | 16.5 µM | > 67.6 µM
10 | N#C[Se]CCCNS(=O)(=O)C1CC2C=CC1C2 (centres undefined) | 1.48 | 8.57 | 0.231 | 0.655 µM | 1.01 | 2.43 µM | 0.652 | 2.09 µM | 1.41 | 2.95 µM | 0.828 | 5.13 µM | 0.409 | 1.87 | 0.511 µM | 5.06 µM | 0.409 | 22.6 | 2.77 µM | 5.65 µM
11 | O=C(c1ccco1)c1c(C(F)(F)F)n([O-])c2ccc(Cl)cc2[n+]1=O | 1.55 | 5.73 | 0.374 | 1.67 µM | 1.79 | 7.05 µM | 1.46 | 2.99 µM | 0.538 | 1.64 µM | 1.47 | 2.86 µM | 1.49 | 4.37 | 0.799 µM | 2.1 µM | 0.0335 | 0.539 | 2.09 µM | 5.63 µM
12 | CC(C)(C)c1c2c(c(C(C)(C)C)c3c1OCN(Cc1ccccc1)C3)OCN(Cc1ccccc1)C2 | – | > 100 | – | 29 µM | – | 51.6 µM | – | 20.6 µM | – | 21 µM | – | 39 µM | – | 55.9 | – | 77.3 µM | – | 50.4 | – | > 100 µM
13 | CC(=O)Oc1ccc(/C(=C(\C)c2ccc(Cl)cc2)c2ccc(OCCN3CCCCC3)cc2)cc1 | 1.93 | 5.43 | 1.69 | 3.17 µM | 1.72 | 3.27 µM | 3.62 | 15.2 µM | 1.69 | 3.07 µM | 2.72 | 8.35 µM | 2.14 | 4.82 | 2.15 µM | 4.88 µM | 1.73 | 5.36 | 2.31 µM | 6.09 µM
14 | Cc1ccc(Cl)c(Nc2ccccc2C(=O)O)c1Cl | 29.9 | 94.6 | 21.3 | 62.6 µM | 25.3 | 76 µM | 22.2 | 87.4 µM | 18.2 | 33.5 µM | 31.9 | 98.9 µM | 25.7 | > 100 | 29.6 µM | > 100 µM | 29.9 | 83.9 | 26 µM | 65 µM
15 | O=C(Nc1ccc(/C=C/c2ccc(NC(=O)c3cc(S(=O)(=O)O)c4cccnc4c3O)cc2S(=O)(=O)O)c(S(=O)(=O)O)c1)c1cc(S(=O)(=O)O)c2cccnc2c1O | > 54.4 | > 75.2 | 7.18 | > 49 µM | 34.4 | > 76.8 µM | 46.6 | > 64.4 µM | 50.2 | > 64.3 µM | > 20.2 | > 56.9 µM | > 53.1 | > 74.8 | 9.66 µM | > 72.4 µM | 1.69 | > 28.7 | > 38.9 µM | > 100 µM
16 | COc1cc2c(cc1OC)C1Cc3cc(OC)c(OC)cc3C(C2)N1C | – | > 100 | – | > 100 µM | – | > 100 µM | – | > 100 µM | – | > 100 µM | – | > 100 µM | – | > 75 | – | > 100 µM | – | > 100 | – | > 75 µM
17 | CCCCCCCCCCCCOC1C(CNC(=O)C2OC3OC(C)(C)OC3C2NC(=O)Nc2ccc(CC(=O)NC(Cc3ccccc3)C(=O)O)cc2)OC2OC(C)(C)OC21 (centres undefined) | > 25 | > 25 | > 25 | > 25 µM | > 25 | > 25 µM | > 25 | > 25 µM | > 25 | > 25 µM | > 25 | > 25 µM | 9.2 | > 25 | > 25 µM | > 25 µM | > 25 | > 25 | > 25 µM | > 25 µM
18 | COc1ccc(-n2ccnc2-c2cc(OC)c(OC)c(OC)c2)cc1 | 11.3 | 85.7 | 2.46 | > 100 µM | 1.99 | 8.35 µM | 0.798 | 5.14 µM | 1.91 | 11.1 µM | 10.1 | > 100 µM | 2.08 | 8.29 | 4.71 µM | > 100 µM | 5.75 | > 100 | 5.76 µM | > 100 µM
19 | COc1cc(C(=O)Nc2cc(OC)c3ccn(C)c3c2)cc2c1C[C@]1(C)CC[C@@H](O)C(C)(C)[C@H]1O2 | 4.14 | > 100 | 0.454 | 2.9 µM | 0.0302 | 0.143 µM | 0.149 | 1.89 µM | 0.384 | 1.72 µM | 4.14 | > 100 µM | 0.0673 | 2.05 | 2.69 µM | 58 µM | 0.21 | 1.45 | 0.58 µM | 5.11 µM
20 | O=C(Nc1ccccc1)c1cc(S(=O)(=O)Nc2nc3ccccc3o2)c(SCc2ccccc2)cc1Cl | 33.8 | > 100 | 20.6 | 38.6 µM | 18.5 | 33 µM | 15.2 | 34.6 µM | 14.1 | 28 µM | 22.5 | 43.3 µM | 14.5 | 44.3 | 24.5 µM | 65 µM | 13.3 | 37.8 | 22.3 µM | 58.7 µM
21 | COc1ccc(C2C(C)C(=O)C(C)C(c3ccc(OC)cc3)N2N=O)cc1 (centres undefined) | > 750 | > 1000 | – | 750 µM and > 732 µM | 20.7 | 491 µM | – | > 40.9 µM and 424 µM | > 750 | > 750 µM | – | > 977 µM | – | 890 | 30.5 µM and 248 µM | 750 µM and > 1000 µM | – | > 1000 | > 47.5 µM and 220 µM | > 82.5 µM and 626 µM and 980 µM
22 | Cc1c(O)c2c(c(O)c1Br)C(=O)C=CC2=O | 1.03 | 2.23 | 1.01 | 1.11 µM and 2.28 µM | 14 | 3.15 µM and 28.2 µM | – | 3.18 µM and 3.87 µM | – | 0.974 µM and 1.78 µM | 1.95 | 3.19 µM and 3.92 µM | – | 6.34 | – | 2.74 µM | – | 0.101 | 14.1 µM | 3.93 µM and 27.1 µM

Source: PubChem BioAssay (NCI)
